Assay results reported in patent publication US20070082942A1, “Prevention of hiv-1 infection by inhibition of rho-mediated reorganization and/or content alteration of cell membrane raft” (priority 2003, published 2007).

Experiments:
[1] = test system: HIV-1 LTR-driven promoter; experiment: LTR-driven gene expression; conditions: for Reversal of lovastatin-induced increase in LTR-driven transcription: supplementation with lovastatin
Protocol: LTR-driven gene expression. Jurkat cells transfected with pLTR-luc (Schwartz, O. et al (1990) Gene 88:197-205), pcDNA-tat and the promoterless renilla luciferase plasmid were treated at 4 h post-transfection with inhibitors and metabolites at the indicated concentrations (see HIV-1. infections section). Relative luciferase units (RLU) were calculated as the ratio between firefly and renilla activity after 48 h.

[2] = test system: replication-defective NL4-3 virus pseudotyped with HIV-1ADA envelope; format: cell-based; conditions: for Entry of R5-pseudotyped virus: MT2-CCR5 cells treated with 10 μM compound, 48 h, FIG. 6A, 7B
Rho = Rho activation assay; format: cell-based; conditions: FIG. 8C
Protocol: Rho and Rac activation assay. […] At times indicated, cells were washed with ice-cold PBS and lysates prepared using Rho or Rac activation assay kits (Upstate Biotechnology). GTP-bound Rho was precipitated with RBD-agarose beads and GTP-Rac with PBD-agarose beads. Activated Rho or Rac were measured in pellets by Western blot with specific antibodies, using crude cell extracts for normalization. Densitometry was performed using NIH Image software.

[3] = test system: gp120 with the HIV-1 receptors CD4 and CXCR4; experiment: gp120-induced patching; conditions: for Restoration of patch size and gp120-CXCR4 co-localization in lovastatin-treated cells: addition to lovastatin-treated cells
[4] = test system: replication-defective NL4-3 virus pseudotyped with VSV envelope; format: cell-based, vesicular stomatitis virus
R5 (BaL) HIV-1 strain = experiment: HIV-1 infection of PHA-activated human PBMC, p24 antigen, R5 strain; format: cell-based
Protocol: (§1) Treated PBMC were incubated with NL4-3 or BaL viral stocks (1 or 10 ng p24 antigen/10^6 cells; 3 h, 37° C.). Cell-free supernatants were collected daily from cultured cells (0.5×10^6/ml) and tested for p24 antigen (Coulter).

HIV-1 = experiment: Lovastatin treatment of HIV-1-infected patients; format: in vivo, human; conditions: Table I
[5] = test system: VSV-G-pseudotyped virus produced by HEK 293T cells; format: cell-based, vesicular stomatitis virus
X4 (NL4-3) HIV-1 strain = experiment: HIV-1 infection of PHA-activated human PBMC, p24 antigen, X4 strain; format: cell-based
Protocol: as §1

MT2-CCR5 cells = experiment: Cell cholesterol mass determination; conditions: lovastatin-treated MT2-CCR5 cells; FIG. 7C
grafted human PBMC = conditions: mouse, in vivo
[6] = test system: HIV-1-pseudotyped virus produced by HEK 293T cells; format: cell-based
HIV-1 NL4-3 = experiment: Murine SCID-hu-PBMC model of HIV-1 infection; format: in vivo, CB.17 SCID/SCID mice
[7] = test system: X4-pseudotyped replication-defective HIV-1 NL4-3 variant; format: cell-based; conditions: 10 μM lovastatin; not shown
Gag = conditions: cells expressing the peptide
Luc-Ada viral particles = experiment: Production of Luc-Ada viral particles in cells expressing raft-targeted protease peptide; conditions: cells expressing the peptide; FIG. 8B as printed
[8] = lovastatin-treated PBMC, FIG. 8A

Compound: CC(C)=CCC/C(C)=C/CC/C(C)=C/COP(=O)(O)OP(=O)(O)O [FPP, famesylpyrophosphate]
- Reversal of lovastatin-induced increase in LTR-driven transcription ([1]; MT2-CCR5 cells, FIG. 7D): not
- Reversal of lovastatin-induced inhibition of HIV-1 entry [2]: not

Compound: CC(C)=CCC/C(C)=C/CC/C(C)=C/CC/C(C)=C/COP(=O)(O)OP(=O)(O)O [GGPP, geranylgeranylpyrophosphate]
- Reversal of lovastatin inhibition of HIV-1-induced Rho activation (Rho; co-incubation with lovastatin): reversed
- Reversal of lovastatin-induced increase in LTR-driven transcription ([1]; MT2-CCR5 cells, FIG. 7D): reversed
- Reversal of lovastatin-induced inhibition of HIV-1 entry [2]: reversed

Compound: CC(C)CCC[C@@H](C)[C@H]1CC[C@H]2[C@@H]3CC=C4C[C@@H](O)CC[C@]4(C)[C@H]3CC[C@]12C [cholesterol]
- Restoration of patch size and gp120-CXCR4 co-localization in lovastatin-treated cells ([3]; FIG. 8A): not
- Reversal of lovastatin-induced increase in LTR-driven transcription ([1]; MT2-CCR5 cells, FIG. 7D): not
- Reversal of lovastatin-induced inhibition of HIV-1 entry [2]: not

Compound: COC(=O)[C@H](CCSC)NC(=O)c1ccc(NC[C@@H](N)CS)cc1-c1ccccc1 [farnesyl transferase inhibitor]
- Entry of R5-pseudotyped virus [2]: not
- Entry of VSV-pseudotyped virus [4]: did not affect

Compound: COC(=O)[C@H](CC(C)C)NC(=O)c1ccc(NC[C@@H](N)CS)cc1-c1ccccc1 [geranylgeranyl transferase inhibitor]
- HIV transcription (LTR-driven) ([1]; MT2-CCR5 cells, FIG. 7D): increased
- Entry of R5-pseudotyped virus [2]: inhibited
- Entry of VSV-pseudotyped virus [4]: did not affect

Compound: CC[C@H](C)C(=O)O[C@H]1C[C@@H](C)C=C2C=C[C@H](C)[C@H](CC[C@@H]3C[C@@H](O)CC(=O)O3)[C@H]21 [lovastatin]
- HIV-1 replication (p24 antigen production) (R5 (BaL) HIV-1 strain; PBMC pretreated 48 h with 10 μM lovastatin, R5 (BaL)-infected cultures, FIG. 5A): reduced p24 antigen production
- Serum viral RNA loads (HIV-1; six A1 stage non-HAART patients, 40 mg/day oral, one month, sole therapy): clear reduction
- Viral load after discontinuation of treatment (HIV-1; three months after termination of treatment): rebound
- VSV-G-pseudotyped viral production [5]: not that of VSV-G-pseudotyped viruses
- HIV-1 replication (p24 antigen production) (X4 (NL4-3) HIV-1 strain; PBMC pretreated 48 h with 10 μM lovastatin, X4 (NL4-3)-infected cultures, FIG. 5A): reduced p24 antigen production
- Cholesteryl ester mass (MT2-CCR5 cells): drastically reduced
- Free cholesterol levels vs untreated cells (MT2-CCR5 cells): comparable
- HIV-1-induced Rho activation (Rho; MT2-CCR5 cells incubated with lovastatin prior to virus exposure): inhibited
- gp120 binding to CD4 ([3]; lovastatin-treated PBMC): did not affect
- Co-localization between gp120 and CXCR4 [3, 8]: drastically reduced
- gp120 patch size vs untreated cells [3, 8]: smaller gp120 patches
- Number of labeled cells or labeling intensity (grafted human PBMC): No difference
- HIV-1 LTR-driven promoter activity ([1]; Jurkat cells, FIG. 6C): increased
- HIV-1-pseudotyped viral production [6]: reduced
- Entry of R5-pseudotyped virus [2]: inhibited entry
- Virus rescue by co-culture of peritoneal cells with PHA-activated human PBMC (HIV-1 NL4-3; cells from two mice with undetectable viral RNA): did not rescue virus
- Mice with undetectable viral RNA in plasma (HIV-1 NL4-3; lovastatin i.p. 5 mg/kg every three days): 4 of 10
- Mean viral load (plasma HIV-1 RNA) (HIV-1 NL4-3; lovastatin i.p. 5 mg/kg every three days, one week post-infection, vs vehicle, FIG. 5C): significantly reduced
- CD4+ T cell counts vs controls (HIV-1 NL4-3; one week post-infection): higher
- Entry of X4-pseudotyped virus [7]: inhibited entry

Compound: L-mevalonate
- Reversal of lovastatin effect on p24 production (R5 (BaL) HIV-1 strain; co-incubation with lovastatin, R5-infected cultures): reversed
- Reversal of lovastatin effect on p24 production (X4 (NL4-3) HIV-1 strain; co-incubation with lovastatin, X4-infected cultures): reversed
- Restoration of patch size and gp120-CXCR4 co-localization in lovastatin-treated cells ([3]; FIG. 8A): restored
- Reversal of lovastatin-induced increase in LTR-driven promoter activity ([1]; Jurkat cells, co-incubation with lovastatin, FIG. 6C): reversed
- Reversal of lovastatin-induced reduction of viral production ([6]; co-incubation with lovastatin, FIG. 6B): reversed
- Reversal of lovastatin-induced inhibition of HIV-1 entry [2]: reversed

Compound: MGCGCSSHPEDDISYEL [SEQ. ID. NO: 21]
- Gag processing (Gag): severely attenuated
- Production of Luc-Ada viral particles (Luc-Ada viral particles): severely diminished
